Data as given in patent US8853234B2, “Quinolone analogs and methods related thereto” (Senhwa Biosciences, Inc., priority 2007, dated 2014).
Like-named read-outs stand apart in the source and are kept apart here.

Legend:
[1] = tested on: A375 cell xenograft tumors; assay: A375 cell xenograft tumor inhibition; assay type: in vivo, rodents; details: seven days
Procedure: (§1) Compounds A1, A2 and A3 also were tested for tumor inhibition in xenograft rodents. Rodents having A375 cell xenograft tumors were administered 100 mg/kg, 75 mg/kg and 100 mg/kg doses of Compound A1, A2 and A3, respectively, by oral delivery twice a day. […] Also, rodents having MiaPaCa xenograft tumors were administered 100 mg/kg doses of Compound A1 and A3 by oral delivery twice per day.

[2] = tested on: MiaPaCa xenograft tumors; assay: MiaPaCa xenograft tumor inhibition; assay type: in vivo, rodents; details: 100 mg/kg oral twice per day, twenty-two days
Procedure: as §1

[3] = tested on: a variety of cell types that are representative of different cancers; assay: Alamar Blue cell viability assay, variety of cell types representative of different cancers (Tables 12-14); assay type: cell-based; details: read-out: IC50
Procedure: A representative cell-proliferation assay protocol using Alamar Blue dye (stored at 4° C., use 20 ul per well) is described hereafter.
96-Well Plate Setup and Compound Treatment
a. Split and trypsinize cells.
b. Count cells using hemocytometer.
c. Plate 4,000-5,000 cells per well in 100 μl of medium and seed into a 96-well plate according to the following plate layout. Add cell culture medium only to wells B10 to B12. Wells B1 to B9 have cells but no compound added.
d. Add 100 μl of 2× drug dilution to each well in a concentration shown in the plate layout above. At the same time, add 100 μl of media into the control wells (wells B10 to B12). Total volume is 200 μl/well.
e. Incubate four (4) days at 37° C., 5% CO2 in a humidified incubator.
f. Add 20 μl Alamar Blue reagent to each well.
g. Incubate for four (4) hours at 37° C., 5% CO2 in a humidified incubator.
h. Record fluorescence at an excitation wavelength of 544 nm and emission wavelength of 590 nm using a microplate reader.
In the assays, cells are cultured with a test compound for approximately four days, the dye then is added to the cells and fluorescence of […] dye is detected after approximately four hours. Different types of cells can be utilized in the assays (e.g., HCT-116 human colorectal carcinoma cells, PC-3 human prostatic cancer cells and MiaPaca human pancreatic carcinoma cells). Anti-proliferative effects of representative compounds are provided hereafter.
(§2) Inhibitory activity on cell proliferation of Compounds A1, A2 and A3 was determined using an Alamar Blue cell viability assay (e.g., Example 39 herein) using a variety of cell types that are representative of different cancers Inhibition values (IC50) are presented in micromolar concentrations in the following table (Table 12).
as §2, with “representative compounds of the invention” for “Compounds A1, A2 and A3”, “Table 13 and Table 14.” for “the following table (Table 12).”

[4] = Homo sapiens, A-375, A375, Skin, Epithelial
[5] = Homo sapiens, BXPC-3, BXPC3, Pancreas, Epithelial
[6] = Homo sapiens, HCT-116, HCT-116, Colorectal, Epithelial
[7] = Homo sapiens, HL60/MX2, HL60/MX2, Hematopoetic, Lymphoma
[8] = Homo sapiens, HL-60, HL60, Hematopoetic, Lymphoma
[9] = Homo sapiens, HT-29, HT-29, Colorectal, Epithelial
[10] = Homo sapiens, Jurkat, Hematopoetic, Lymphoma
[11] = Homo sapiens, K562, K562, Hematopoetic, Lymphoblast
[12] = Homo sapiens, LNCaP, Prostate, Fibroblastoid
[13] = Homo sapiens, MCF7, MCF-7, Breast, Mammary carcinoma
[14] = Homo sapiens, MDA-MB-231, MDA-MB-231, Breast, Epithelial
[15] = Homo sapiens, MIA PaCa-2, Miapaca-2, Pancreas, Epithelial
[16] = Homo sapiens, NCI-H460, H460, Lung, Epithelial
[17] = Homo sapiens, NCI-H1299, H1299, Lung, NSCL
[18] = Homo sapiens, PANC-1, PANC-1, Pancreas, Epithelial
[19] = Homo sapiens, SAOS-2, Saos-2, Bone, Epithelial
[20] = Homo sapiens, SK-MES-1, SK-MES-1, Lung, Sqaumous carcinoma
[21] = Homo sapiens, SK-OV-3, SK-OV-3, Ovary, Epithelial
[22] = Homo sapiens, U2OS, Bone, Epithelial
[23] = Miapaca-R5, Pancreas, Epithelial

SMILES	A375 tumor growth inhibition relative to untreated control group ([1]; 100 mg/kg oral twice a day)	IC50 [3, 4] [nM]	IC50 [3, 5] [nM]	IC50 [3, 6] [nM]	IC50 [3, 7] [nM]	IC50 [3, 8] [nM]	IC50 [3, 9] [nM]	IC50 [3, 10] [nM]	IC50 [3, 11] [nM]	IC50 [3, 12] [nM]	IC50 [3, 14] [nM]	IC50 [3, 15] [nM]	IC50 [3, 16] [nM]	IC50 [3, 17] [nM]	IC50 [3, 19] [nM]	IC50 [3, 20] [nM]	IC50 [3, 21] [nM]	IC50 [3, 22] [nM]	IC50 [3, 23] [nM]	IC50 ([3]; PC-3, Prostate, Epithelial) [nM]	further results
Cc1cnc(CNC(=O)c2c(=O)c3ccc(N4CCN(C)CC4)nc3n3c2sc2ccccc23)cn1 [Compound A1]	significantly inhibited A375 tumor growth	90	56	97	244	264	73	69	140	77	105	103	142	112	264	105	215	752	149	600	MiaPaCa tumor growth inhibition relative to untreated control group [2]: significantly inhibited MiaPaCa tumor growth; IC50 [3, 13]: 348 nM; IC50 [3, 18]: 148 nM
Cc1cnc(CNC(=O)c2c(=O)c3ccc(N4CCCN(C)CC4)nc3n3c2sc2ccccc23)cn1 [Compound A2]		23	35	32	147	83	42	25	42	29	52	36	90	69	124	21	64	89	34	89	A375 tumor growth inhibition relative to untreated control group ([1]; 75 mg/kg oral twice a day): significantly inhibited A375 tumor growth; IC50 ([3]; Homo sapiens, COLO 205, COLO-205, Colorectal, Epithelial): 96 nM
O=C(NCCNC1CC1)c1c(=O)c2ccc(N3CCOCC3)nc2n2c1sc1ccccc12 [Compound A3]	significantly inhibited A375 tumor growth	70	71	93	219	160	102	60	120	45	139	122	123	102	249	134	279	476	133	563	MiaPaCa tumor growth inhibition relative to untreated control group [2]: significantly inhibited MiaPaCa tumor growth; IC50 [3, 13]: 267 nM; IC50 [3, 18]: 103 nM
